Test results taken from US20220296595A1, “CDK INHIBITORS” (QILU REGOR THERAPEUTICS INC., priority 2019, published 2022).
Read-outs that look alike come from different tables or passages of the source.

What was measured:
[1] = biological target: T1, CDK4/CyclinD1 (Homo sapiens, UniProt P11802); test: Assay for inhibition of CDK4/CyclinD1 (Caliper microfluidic kinase assay); assay type: biochemical
T1 construct: purchased Thermofisher PR8064A
Outline: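 IC50 was obtained by 4-parameter sigmoidal fitting after 1 nM CDK4/CyclinD1, 200 μM ATP and 1 μM FL-34 substrate reacted for 3 h at room temperature (pH 7.5 HEPES, 10 mM MgCl2). After EDTA quench, substrate and product were separated and detected on a Caliper microfluidic chip.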

[2] = biological target: T2, CDK6/CyclinD3 (Homo sapiens, UniProt Q00534); test: Assay for inhibition of CDK6/CyclinD3 (Caliper microfluidic kinase assay); assay type: biochemical
T2 construct: purchased Carna 04-107
T2 sequence (Q00534 whole entry): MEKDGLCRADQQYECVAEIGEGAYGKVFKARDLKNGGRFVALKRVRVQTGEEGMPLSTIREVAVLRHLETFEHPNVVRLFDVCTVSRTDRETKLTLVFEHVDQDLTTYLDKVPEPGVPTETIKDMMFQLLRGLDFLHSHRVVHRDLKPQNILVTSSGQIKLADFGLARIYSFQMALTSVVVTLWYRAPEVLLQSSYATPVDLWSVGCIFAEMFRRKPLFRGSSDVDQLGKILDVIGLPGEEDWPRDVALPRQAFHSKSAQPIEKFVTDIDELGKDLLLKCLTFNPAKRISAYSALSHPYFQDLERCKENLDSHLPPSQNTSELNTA
T2 sequence (P30281 whole entry partner): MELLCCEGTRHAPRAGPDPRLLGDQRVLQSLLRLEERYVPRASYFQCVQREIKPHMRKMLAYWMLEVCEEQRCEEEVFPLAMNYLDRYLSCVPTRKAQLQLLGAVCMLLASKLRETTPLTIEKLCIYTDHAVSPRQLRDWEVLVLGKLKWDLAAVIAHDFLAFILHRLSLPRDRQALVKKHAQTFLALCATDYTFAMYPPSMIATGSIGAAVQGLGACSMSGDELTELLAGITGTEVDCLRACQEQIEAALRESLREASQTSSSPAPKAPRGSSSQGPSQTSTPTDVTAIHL
Outline: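 IC50s came from four-parameter dose-response fits of microfluidic substrate/product separation data. Reactions held 2 nM CDK6/CyclinD3, 300 μM ATP and 1 μM 5-FAM peptide FL-34 in pH 7.5 HEPES/MgCl2 buffer, ran 3 hours at room temperature, then were quenched with EDTA.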

[3] = biological target: T3, CDK2/CyclinE1 (Homo sapiens, UniProt P24941); test: Assay for inhibition of CDK2/CyclinE1 (Caliper microfluidic kinase assay); assay type: biochemical; conditions: read-out: CDK2 IC50
T3 construct: purchased SignalChem C29-18G
Outline: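 IC50 came from 4-parameter fits of substrate-to-product conversion, separated on a Caliper chip after an EDTA stop. Reactions ran 3 hours at room temperature with 100 μM ATP, 5 μM fluorescent FL-18 peptide and 5 nM enzyme in 100 mM HEPES pH 7.5, 10 mM MgCl2.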

[4] = tested on: T47D breast cancer cells; test: Anti-proliferation assay in T47D cell (Cyquant, day 6); assay type: cell-based, human; conditions: Homo sapiens, T47D, anti-proliferation, T47D cells; read-out: T47D IC50
Outline: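 A ten-point, 3-fold compound series (10 μM down to 0.51 nM) was applied to overnight-settled cells in 10% FBS RPMI 1640, and DNA content was read by CyQuant fluorescence 6 days later. An untreated plate read before dosing served as baseline for subtraction before IC50 fitting.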

[5] = tested on: phosphorylation of Retinoblastoma Protein (pRb Ser807/811 or Ser780) in T47D cells; test: Inhibition of phosphorylation of retinoblastoma protein (pRb) in T47D cell (ELISA); assay type: cell-based, human; conditions: Homo sapiens, T47D, read-out: Phospho T47D Ser807 IC50, pRb Ser807 phosphorylation, T47D cells
Outline: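 T47D cells in RPMI 1640 + 10% FBS, adhered overnight, then treated 24 h with 3-fold compound titrations (top concentration […]). Lysates assayed by sandwich ELISA for pRb Ser807/811 or Ser780 with HRP/TMB detection. IC50 from 4-parameter sigmoidal fit.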

T1 sequence (P11802 whole entry): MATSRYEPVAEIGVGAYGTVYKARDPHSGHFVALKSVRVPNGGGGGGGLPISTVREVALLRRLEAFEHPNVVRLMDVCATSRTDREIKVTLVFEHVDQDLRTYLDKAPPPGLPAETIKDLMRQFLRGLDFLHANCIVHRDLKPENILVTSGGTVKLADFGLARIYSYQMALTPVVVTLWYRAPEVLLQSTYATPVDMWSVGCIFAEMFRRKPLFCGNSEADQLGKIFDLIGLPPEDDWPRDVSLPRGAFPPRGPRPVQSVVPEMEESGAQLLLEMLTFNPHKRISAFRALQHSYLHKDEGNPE
T1 sequence (P24385 whole entry partner): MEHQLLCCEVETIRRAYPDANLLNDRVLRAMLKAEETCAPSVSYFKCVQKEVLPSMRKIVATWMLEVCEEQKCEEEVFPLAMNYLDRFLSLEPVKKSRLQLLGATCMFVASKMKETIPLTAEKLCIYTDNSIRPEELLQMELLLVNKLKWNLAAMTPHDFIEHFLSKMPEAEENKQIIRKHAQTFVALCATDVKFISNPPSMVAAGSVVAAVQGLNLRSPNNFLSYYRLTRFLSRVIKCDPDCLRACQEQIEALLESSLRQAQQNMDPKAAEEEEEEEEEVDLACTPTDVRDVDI

Compound	IC50 ([1]; CDK4/CyclinD1) [nM]	IC50 ([2]; CDK6/CyclinD3) [nM]	IC50 ([3]; CDK2/CyclinE1) [nM]	IC50 [4] [nM]	IC50 [5] [nM]	IC50 ([1]; CDK4/CyclinD1, 200 μM ATP) [nM]	IC50 ([2]; CDK6/CyclinD3, 300 μM ATP) [nM]	IC50 ([3]; CDK2/CyclinE1, 100 μM ATP) [nM]
COc1nc(-c2nc(Nc3ccc(N4CCOCC4=O)cn3)ncc2Cl)cc2c1nc(C)n2C(C)C [compound 83]	< 10	< 10	100 to 1000	< 100	< 100	–	–	–
COc1nc(-c2ccnc(Nc3ccc(N4CCC(N(C)C)CC4=O)cn3)n2)cc2c1ncn2C(C)C (stereo not shown) [compound 91]	< 10	< 10	100 to 1000	< 100	< 100	–	–	–
COc1nc(-c2nc(Nc3ccc(N4CCCCC4=O)cn3)ncc2F)cc2c1nc(C)n2C(C)C [compound 93]	< 10	10 to 100	> 1000	100 to 500	100 to 500	–	–	–
COc1nc(-c2nc(Nc3ccc(N4CCC(N(C)C)CC4)cn3)ncc2F)cc2c1nc(C)n2C(C)C [compound 94]	< 10	10 to 100	> 1000	< 100	100 to 500	–	–	–
COc1nc(-c2nc(Nc3ccc(N4CCOCC4=O)cn3)ncc2F)cc2c1nc(C)n2C(C)C [compound 98]	< 10	10 to 100	> 1000	< 100	< 100	–	–	–
COc1nc(-c2ccnc(Nc3ccc(N4CCC(N5CC(F)C5)CC4=O)cn3)n2)cc2c1ncn2C(C)C (stereo not shown) [compound 99]	< 10	10 to 100	100 to 1000	< 100	< 100	–	–	–
COc1nc(-c2nc(Nc3ccc(N4CCN(C)CC4)cn3)ncc2F)cc2c1nc(C)n2C(C)C [compound 103]	10 to 100	10 to 100	> 1000	100 to 500	< 100	–	–	–
COc1nc(-c2ccnc(Nc3ccc(N4CC5CC4CN5)cn3)n2)cc2c1ncn2C(C)C (stereo not shown) [compound 109]	–	–	–	< 100	< 100	< 10	10 to 100	> 1000
COc1nc(-c2nc(Nc3ccc(N4CCNCC4=O)cc3F)ncc2F)cc2c1ncn2C(C)C [compound 111]	–	–	–	100 to 500	100 to 500	< 10	10 to 100	10 to 100
COc1nc(-c2nc(Nc3ccc(N4CCNCCC4=O)cn3)ncc2F)cc2c1nc(C)n2C(C)C [compound 112]	–	–	–	< 100	100 to 500	< 10	10 to 100	> 1000
COc1nc(-c2nc(Nc3ccc(N4CCCNCC4=O)cn3)ncc2F)cc2c1nc(C)n2C(C)C [compound 113]	–	–	–	100 to 500	100 to 500	< 10	10 to 100	100 to 1000
COc1nc(-c2nc(Nc3ccc(N4CCNCC4=O)c(F)c3)ncc2F)cc2c1ncn2C(C)C [compound 115]	–	–	–	100 to 500	100 to 500	< 10	10 to 100	10 to 100
COc1nc(-c2ccnc(Nc3ccc(N4CCNCC4=O)c(F)c3)n2)cc2c1ncn2C(C)C [compound 116]	–	–	–	100 to 500	< 100	< 10	10 to 100	10 to 100
COc1nc(-c2ccnc(Nc3ccc(N4CCC(C)(N)C4)cn3)n2)cc2c1ncn2C(C)C (stereo not shown) [compound 117]	–	–	–	100 to 500	100 to 500	10 to 100	10 to 100	> 1000
COc1nc(-c2ccnc(Nc3ccc(N4CCC(C)(N)CC4)cn3)n2)cc2c1ncn2C(C)C [compound 118]	–	–	–	100 to 500	< 100	< 10	10 to 100	> 1000
COc1nc(-c2ccnc(Nc3ccc(N4CCN(CCF)CC4=O)cn3)n2)cc2c1ncn2C(C)C [compound 122]	–	–	–	< 100	< 100	< 10	10 to 100	100 to 1000
COc1nc(-c2ccnc(Nc3ccc(N4CCN(CCF)CC4)cn3)n2)cc2c1ncn2C(C)C [compound 123]	–	–	–	100 to 500	100 to 500	< 10	10 to 100	> 1000
COc1nc(-c2nc(Nc3ccc(N4CCN(CCF)CC4=O)cn3)ncc2F)cc2c1ncn2C(C)C [compound 126]	–	–	–	100 to 500	100 to 500	< 10	10 to 100	100 to 1000

Compound	IC50 ([1]; CDK4/CyclinD1) [nM]	IC50 ([2]; CDK6/CyclinD3) [nM]	IC50 ([3]; CDK2/CyclinE1) [nM]	IC50 [4] [nM]	IC50 [5] [nM]	IC50 ([1]; CDK4/CyclinD1, 200 μM ATP) [nM]	IC50 ([2]; CDK6/CyclinD3, 300 μM ATP) [nM]	IC50 ([3]; CDK2/CyclinE1, 100 μM ATP) [nM]
COc1nc(-c2nc(Nc3ccc(N4CCN(C5COC5)CC4=O)cn3)ncc2F)cc2c1ncn2C(C)C [compound 129]	–	–	–	100 to 500	< 100	< 10	10 to 100	> 1000
COc1nc(-c2nc(Nc3ccc(N4CCN(C5COC5)CC4=O)cn3)ncc2F)cc2c1nc(C)n2C(C)C [compound 131]	–	–	–	100 to 500	100 to 500	< 10	10 to 100	> 1000
CCN1CCN(c2ccc(Nc3ncc(F)c(-c4cc5c(ncn5C(C)C)c(OC)n4)n3)nc2)C(=O)C1 [compound 132]	–	–	–	100 to 500	< 100	< 10	10 to 100	> 1000
CC(C)c1cnn2ccc(-c3ccnc(Nc4ccc(N5CC(N(C)C)CCC5=O)cn4)n3)cc12 (stereo not shown) [compound 156]	–	–	–	100 to 500	< 100	10 to 100	100 to 1000	10 to 100
CC(C)c1cnn2ccc(-c3ccnc(Nc4ccc(N5CCCC(N(C)C)C5=O)cn4)n3)cc12 (stereo not shown) [compound 157]	–	–	–	< 100	< 100	< 10	10 to 100	100 to 1000
CC(C)c1cnn2ccc(-c3nc(Nc4ccc(N5CCC(N6CC(F)(F)C6)CC5=O)cn4)ncc3F)cc12 (stereo not shown) [compound 158]	–	–	–	< 100	< 100	< 10	10 to 100	10 to 100
CC(C)c1cnn2ccc(-c3nc(Nc4ccc(N5CCC(NC6CC(F)(F)C6)CC5=O)cn4)ncc3F)cc12 (stereo not shown) [compound 159]	–	–	–	< 100	< 100	< 10	10 to 100	10 to 100
CC(C)c1cnn2ccc(-c3ccnc(Nc4ccc(N5CCC(N6CC(F)C6)CC5=O)cn4)n3)cc12 (stereo not shown) [compound 162]	–	–	–	< 100	< 100	< 10	10 to 100	10 to 100
CC(C)c1cnn2ccc(-c3ccnc(Nc4ccc(N5CCNC5=O)cn4)n3)cc12 [compound 163]	–	–	–	< 100	< 100	< 10	10 to 100	10 to 100
CC(C)c1cnn2ccc(-c3ccnc(Nc4ccc(N5CCOCC5=O)cc4F)n3)cc12 [compound 164]	–	–	–	< 100	< 100	< 10	10 to 100	< 10
CC(C)c1cnn2ccc(-c3ccnc(Nc4ccc(S(N)(=O)=O)cc4)n3)cc12 [compound 165]	–	–	–	< 100	100 to 500	10 to 100	100 to 1000	< 10
CNC(=O)c1ccc(Nc2nccc(-c3ccn4ncc(C(C)C)c4c3)n2)cc1 [compound 166]	–	–	–	< 100	< 100	< 10	10 to 100	< 10
CC(C)c1cnn2ccc(-c3ccnc(Nc4ccc(C(=O)N(C)C)cc4)n3)cc12 [compound 167]	–	–	–	< 100	< 100	< 10	10 to 100	< 10
CC(C)c1cnn2ccc(-c3ccnc(Nc4ccc(C(N)=O)cc4)n3)cc12 [compound 168]	–	–	–	< 100	< 100	< 10	10 to 100	< 10
CC(C)c1cnn2ccc(-c3ccnc(Nc4ccc(N5CCC(N6CCC6)CC5=O)cn4)n3)cc12 (stereo not shown) [compound 171]	–	–	–	< 100	< 100	< 10	10 to 100	< 10
CC(C)c1cnn2ccc(-c3ccnc(Nc4ccc(N5CCC(N(C)C)CC5=O)cc4)n3)cc12 (stereo not shown) [compound 172]	–	–	–	< 100	< 100	< 10	< 10	< 10
CC(C)c1cnn2ccc(-c3ccnc(Nc4ccc(N5CCCNC5=O)cc4)n3)cc12 [compound 173]	–	–	–	< 100	< 100	< 10	< 10	10 to 100
